Source: publication PMC11996864, “A small-molecule inhibitor of BCL10-MALT1 interaction abrogates progression of diffuse large B cell lymphoma” (The Journal of Clinical Investigation, 2025)
“And” between values parts separate entries of the source, which are not always exact repeats. Equal values may be shown once.

Key:
[1] = molecular target: T1, binding of Id1 to immobilized MyoD (Homo sapiens, UniProt P41134); experiment: MyoD1/ID1 ELISA (specificity control); conditions: for inhibition of binding of Id1 to immobilized MyoD: result in words
T1 construct: purchased Proteintech Ag13359 (GST-ID1); Ag13186 (His-MyoD1)
T1 sequence (P41134 1-155): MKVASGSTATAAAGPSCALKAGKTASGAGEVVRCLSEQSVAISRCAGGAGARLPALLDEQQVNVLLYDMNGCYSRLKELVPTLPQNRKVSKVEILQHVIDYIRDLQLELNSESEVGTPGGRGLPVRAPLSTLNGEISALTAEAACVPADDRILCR
Description: ELISA-based protein-protein interaction assay. On a high-binding 96-well ELISA microplate (Greiner Cat# 655061), 100 ng of His-tagged recombinant human full-length BCL10 protein (Novus Cat# NBP1-99064) or in 100 µl PBS was allowed to adhere overnight at 4°C. The plate was blocked with 5% BSA in PBS for 1 hour at room temperature. After washing twice with PBS-T, a mixture of 100 ng of GST-tagged recombinant human full-length MALT1 protein (Novus Biologicals Cat# H00010892-P01) and compound that was preincubated for 1 hour in 100 μl PBS was added to the plate for 1 hour at room temperature. After washing three times with PBS-T, anti-MALT1 antibody (Cell Signaling Technology, Cat# 2494) in 5% BSA in PBS was added at 1:1000 dilution for 1 hour at room temperature. After washing three times with PBS-T, HRP-conjugated secondary antibody in 5% BSA in PBS was added at 1:5000 dilution for 1 hour at room temperature. After washing three times with PBS-T, 100 µl of 3,3’,5,5’-tetramethylbenzidine (TMB) substrate solution (Thermo Scientific, Cat# 34028) was added for up to 15 minutes, and 100 µl of 2 M sulfuric acid was added to stop the reaction. The plate was read at 450 nm using a spectrophotometer (Molecular Devices SpectraMax i3). The MyoD1/ID ELISA was performed as above except that 100 ng of recombinant human His-tagged MyoD1 (Proteintech, Cat# Ag13186) was plated overnight at 4°C prior to the addition of 100 ng of recombinant human GST-ID1 (Proteintech, Cat# Ag13359) preincubated to with compounds. The anti-GST antibody (clone 26H1, Cell signaling Technology, Cat #2624) was used to detect bound ID1. […]

[2] = test system: ERK1/2 phosphorylation in Jurkat T cells; experiment: ERK phosphorylation after CD3/CD28 stimulation (MALT1-independent control); assay type: cell-based, human; conditions: for ERK phosphorylation: result in words; for pERK 1/2 (normalized): Jurkat, 1 μM;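 for pERK 1/2 (normalized): Phosphorylated ERK1/2 relative to total ERK1/2 protein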
Description: Western blot analysis of RelB and N4BP1 cleavage was used to test the effect of small molecules on MALT1 protease activity. To this end, 3 million Jurkat T cells were pretreated with compounds for 24 hours in serum-free media, and then 5 μM MG-132 was added for 1 hour before stimulation with CD3/CD28 (Stemcell Technologies, catalog 10971), and lysed in RIPA buffer (Millipore, catalog 20-188) with protease and phosphatase inhibitor cocktail (Pierce, catalog 78446). IKKα/β phosphorylation and IκBα phosphorylation were used as measures of MALT1 scaffolding activity, while ERK1/2 phosphorylation was used as a control. […] For experiments evaluating RelB cleavage and phosphorylation of IκBα in TMD8 cells, cells were treated with compounds for 24 hours in media containing 5% FBS. For RelB Western blot analysis, 5 μM MG-132 (Cell Signaling Technology, catalog 2194s) was added 4 hours before lysis in RIPA lysis buffer with protease/phosphatase inhibitors.

[3] = test system: RelB cleavage in TMD8 cells; experiment: Constitutive RelB cleavage, Western blot; assay type: cell-based, human; conditions: result in words
Description: Western blot analysis of RelB and N4BP1 cleavage was used to test the effect of small molecules on MALT1 protease activity. To this end, 3 million Jurkat T cells were pretreated with compounds for 24 hours in serum-free media, and then 5 μM MG-132 was added for 1 hour before stimulation with CD3/CD28 (Stemcell Technologies, catalog 10971), and lysed in RIPA buffer (Millipore, catalog 20-188) with protease and phosphatase inhibitor cocktail (Pierce, catalog 78446). IKKα/β phosphorylation and IκBα phosphorylation were used as measures of MALT1 scaffolding activity, while ERK1/2 phosphorylation was used as a control. Two million Jurkat T cells were treated with 1 μM M1i-124, 1 μM M1i-124d1, or DMSO in serum-free media for 16 hours, stimulated with CD3/CD28 for 0, 5, 10, or 20 minutes, and then immediately lysed in RIPA buffer with protease and phosphatase inhibitors. For experiments evaluating RelB cleavage and phosphorylation of IκBα in TMD8 cells, cells were treated with compounds for 24 hours in media containing 5% FBS. For RelB Western blot analysis, 5 μM MG-132 (Cell Signaling Technology, catalog 2194s) was added 4 hours before lysis in RIPA lysis buffer with protease/phosphatase inhibitors.

Structure (SMILES)	MyoD-Id Interaction (% of control) ([1]; 0.0975 µM)	MyoD-Id Interaction (% of control) ([1]; 0.39 µM)	MyoD-Id Interaction (% of control) ([1]; 1.56 µM)	MyoD-Id Interaction (% of control) ([1]; 6.25 µM)	MyoD-Id Interaction (% of control) ([1]; 12.5 µM)	remaining activity at 12.5 µM ([1]; 12.5 µM, read-out: MyoD-Id Interaction (% of control))	MyoD-Id Interaction (% of control) ([1]; 25 µM)	MyoD-Id Interaction (% of control) ([1]; 50 µM)	remaining activity at 50 µM ([1]; 50 µM, read-out: MyoD-Id Interaction (% of control))	MyoD-Id Interaction (% of control) ([1]; 100 µM)	inhibition of binding of Id1 to immobilized MyoD [1]	ERK phosphorylation [2]	RelB cleavage in TMD8 cells [3]	remaining activity at 0.39 µM ([1]; 0.39 µM, read-out: MyoD-Id Interaction (% of control))	remaining activity at 6.25 µM ([1]; 6.25 µM, read-out: MyoD-Id Interaction (% of control))	pERK 1/2 (normalized) ([2]; CD3/CD28 5 min)	pERK 1/2 (normalized) ([2]; CD3/CD28 10 min)	pERK 1/2 (normalized) ([2]; CD3/CD28 15 min)	pERK 1/2 (normalized) ([2]; CD3/CD28 20 min)
O=S(=O)(NCc1ccc2c(c1)OCO2)c1ccc(Cc2ccc(S(=O)(=O)NCc3ccc4c(c3)OCO4)cc2)cc1 [M1i-124]	75 % of control and 118.107 % of control and 86.1723 % of control	70.9459 % of control and 110.989 % of control and 93.988 % of control	102.244 % of control and 139.153 % of control and 113.828 % of control	126.689 % of control and 146.808 % of control and 132.264 % of control	149.548 % of control and 131.062 % of control	145%	150.772 % of control and 122.599 % of control and 116.032 % of control	152.034 % of control and 140.013 % of control	158%	153.861 % of control and 138.475 % of control and 133.2 % of control	neither M1i-124 nor M1i-124d1 could inhibit	unaffected	markedly reduced cleavage of RelB						
COc1ccc(CNS(=O)(=O)c2ccc(Cc3ccc(S(=O)(=O)NCc4ccc(OC)cc4)cc3)cc2)cc1 [M1i-124d1]	78.8369 % of control and 104.379 % of control and 92.0174 % of control	96.3277 % of control and 95.1904 % of control	85.8349 % of control and 109.633 % of control and 85.4375 % of control	108.475 % of control and 92.4516 % of control	119.401 % of control and 82.5424 % of control and 93.487 % of control		109.677 % of control and 97.6271 % of control and 64.0281 % of control	120.512 % of control and 93.4463 % of control and 89.2118 % of control		139.841 % of control and 108.927 % of control and 105.812 % of control	neither M1i-124 nor M1i-124d1 could inhibit	unaffected	markedly reduced cleavage of RelB	80.9%	97.9%	1.155 and 0.776 and 1.27 and 0.7498 and 0.998	1.2674 and 0.9152 and 1.197 and 0.7135 and 0.9691	1.05 and 0.8514 and 1.066 and 0.6774 and 0.9099	0.8015 and 0.6878 and 0.9541 and 0.7317 and 0.9634
